Ends that are not written are not given here.
What was measured:
E. coli = E. coli inhibition test (colony count on agarose plate); assay type: cell-based, Escherichia coli; conditions: for number of E. coli clones on plate: AMP 200 μg/mL mixed 1:1 with bacterial solution, 15 min room temperature, cultivated 37 °C 12 h, control 251 clones
Procedure: The 39 AMPs synthesized in Examples 1 to 39 each were subjected to an E. coli inhibition test. 30 μL of an E. coli bacterial solution was taken and mixed with 30 μL of each of the AMPs (concentration: 200 μg/mL), and 30 μL of a PBS isotonic solution was adopted to prepare a control; a reaction was allowed at room temperature for 15 min, and a resulting bacterial solution was evenly coated on an agarose plate and cultivated at 37 °C for 12 h; and the number of E. coli bacteria on each plate was counted and recorded.
In order to make the experimental results clearer, 6 experimental samples were taken for control analysis.

oral bacteria = experiment: Inhibition on oral bacteria (mouthwash from the elderly, sheep blood agar); assay type: cell-based; conditions: 30 min, anaerobic 37 °C 4 d
Procedure: Mouthwash was taken from the elderly and divided into 4 parts of equal amounts, and the 4 parts each were mixed with a solution of 2 mg/mL SEQ ID NO: 8 at different amounts for 30 min and then evenly coated on plates with sheep blood agar, where A: PBS (control), B: 2 μL, C: 10 μL, and D: 20 μL; and resulting mixtures each were anaerobically cultivated at 37 °C for 4 d, and the number of colonies on each plate was observed.

RNA viruses = experiment: Killing of the AMP for RNA viruses (RT-PCR after infection of 293T); assay type: cell-based; conditions: supernatant mixed with equal amount of 200 μg/mL AMP for 15 min; 293T infected 12 h; control 1.7×10^7
Procedure: The plasmids pNL4.3Δ, pVSV-G, p-enhancer, and lipo2000 each were used to transfect 293T, then the cells were cultivated at 37° ° C. for two days, a culture supernatant was taken and centrifuged to remove organelle impurities, and 500 μL of a cell supernatant was mixed with an equal amount of 200 μg/mL SEQ ID NO: 8 to allow a reaction for 15 min. In a control group, PBS was used instead of SEQ ID NO: 8. The filter centrifugation (Millipore Amicon Ultra-15) was used to remove the AMP, thereby eliminating a killing effect of the AMP itself on cells. A sample to be tested was used to infect the 293Tcell line, and then the cell line was cultivated at 37° C. for 12 h. The 293T cell line was recovered, and the RT-PCR method was used to determine the infection difference between live viruses for the cells. The control group and the experimental group had the same experimental environment, but the amino acid sequence of SEQ ID NO: 8 of the present application was added in the experimental group.

K562 cells = experiment: Killing of the AMP for tumor cells (FCM PI kit); assay type: cell-based; conditions: 10 ng, 20 ng and 40 ng of AMP
Procedure: K562 cells were cultivated, a same amount of K562 cells was taken and mixed with 10 ng, 20 ng, and 40 ng of the AMP of SEQ ID NO: 8 to allow a reaction, and apoptotic cells were determined by a flow cytometry (FCM) PI kit.

[1] = tested on: Jurkat cell line (leukemia lymphocytes); experiment: Killing of the AMP for leukemia lymphocytes; assay type: cell-based; conditions: 20 μL of 1 μg/mL AMP, 10^5 cells, 10 min
Procedure: Jurkat cell line (leukemia lymphocytes) was taken. 20 μL of a solution of 1 μg/mL AMP of SEQ ID NO: 10 was mixed with 10^5 cells to allow a reaction for 10 min, and a resulting mixture was centrifuged at 1,000 rpm for 3 min.

Human RBCs = assay type: cell-based; conditions: 20 μL of 1 μg/mL AMP, 2% RBCs, 10 min
Procedure: Human RBCs were taken. 20 μL of a solution of 1 μg/mL AMP of SEQ ID NO: 27 was mixed with 2% RBCs to allow a reaction for 10 min, and a resulting mixture was centrifuged at 1,000 rpm for 3 min.

[2] = tested on: HypG2 cell line (liver cancer cells); experiment: Killing of the AMP for liver cancer cells; assay type: cell-based; conditions: 20 μL of 1 μg/mL AMP, 10^5 cells, 10 min
Procedure: HypG2 cell line (liver cancer cells) was taken. 20 μL of a solution of 1 μg/mL AMP of SEQ ID NO: 15 was mixed with 10^5 cells to allow a reaction for 10 min, and a resulting mixture was centrifuged at 1,000 rpm for 3 min.

[3] = tested on: K562 cell line (leukemia cells); experiment: Killing of the AMP for leukemia cells; assay type: cell-based; conditions: 20 μL of 1 μg/mL AMP, 10^5 cells, 10 min
Procedure: K562 cell line (leukemia cells) was taken. 20 μL of a solution of 1 μg/mL AMP of SEQ ID NO: 17 was mixed with 10^5 cells to allow a reaction for 10 min, and a resulting mixture was centrifuged at 1,000 rpm for 3 min.

With “HAMGNMLKIMASAVLVRH [SEQ ID NO: 8, HAMGNMLKIMASAVLVRH]” the “number of E. coli clones on plate” value (E. coli) was 1 E. coli clones, the “inhibitory effect on E. coli” value (E. coli; AMP 200 μg/mL, 15 min, plate count (FIG. 1)) was “most significant inhibitory effect” and the “growth of oral bacteria on plate” value (oral bacteria; B: 2 μL of 2 mg/mL solution) was “a small number of bacteria grew”. For the same sequence, the “growth of oral bacteria on plate” value (oral bacteria; C: 10 μL of 2 mg/mL solution) was “no oral bacteria grew”, the “growth of oral bacteria on plate” value (oral bacteria; D: 20 μL of 2 mg/mL solution) was “no oral bacteria grew” and the active viral copy (RNA viruses) was 5×10^5. The “cell death (apoptotic cells, FCM PI)” value (K562 cells) was “cell death was proportional to the content of the AMP”.

With “HAMPNMLRIMASAVLVKR (antimicrobial peptide, fully synthetic) [SEQ ID NO: 7]” the “number of E. coli clones on plate” value (E. coli) was 216 E. coli clones.

In the case of “HKAVGNMLKIASAVLVHK (antimicrobial peptide, fully synthetic) [SEQ ID NO: 6]”, the “number of E. coli clones on plate” value (E. coli) is reported as 226 E. coli clones.

“HKAVPNMLHIASAVLVRH (antimicrobial peptide, fully synthetic) [SEQ ID NO: 5]” was tested, and the “number of E. coli clones on plate” value (E. coli) was 236 E. coli clones.

For “HKRAMPSIVKMIATLVLARKH (antimicrobial peptide, fully synthetic) [SEQ ID NO: 10]”, the “effect on leukemia lymphocytes (image)” value [1] was “leukemia lymphocytes clump, and some are broken”.

With “KAVPNMLKIMASLVLARH [SEQ ID NO: 27, KAVPNMLKIMASLVLARH]” the “clumping of RBCs” value (Human RBCs) was “human RBCs clump” and the hemolysis (Human RBCs) was “no obvious hemolysis”.

In the case of RAMPNMLRIMASLVLARKH [SEQ ID NO: 15], the “effect on liver cancer cells (image)” value [2] is reported as “Liver cancer cells clump, and are broken and deformed”.

With RHAMGQMLRIMASLVLARK [SEQ ID NO: 17] the “effect on leukemia cells (image)” value [3] was “leukemia cells clump”.
